How the values were obtained:
[1] = target: T1, Polyunsaturated fatty acid 5-lipoxygenase (Homo sapiens) (UniProt P09917); experiment: Inhibition of human recombinant 5-lipoxygenase at 1 mM after 10 mins by fluorescence assay
T1 sequence (whole entry): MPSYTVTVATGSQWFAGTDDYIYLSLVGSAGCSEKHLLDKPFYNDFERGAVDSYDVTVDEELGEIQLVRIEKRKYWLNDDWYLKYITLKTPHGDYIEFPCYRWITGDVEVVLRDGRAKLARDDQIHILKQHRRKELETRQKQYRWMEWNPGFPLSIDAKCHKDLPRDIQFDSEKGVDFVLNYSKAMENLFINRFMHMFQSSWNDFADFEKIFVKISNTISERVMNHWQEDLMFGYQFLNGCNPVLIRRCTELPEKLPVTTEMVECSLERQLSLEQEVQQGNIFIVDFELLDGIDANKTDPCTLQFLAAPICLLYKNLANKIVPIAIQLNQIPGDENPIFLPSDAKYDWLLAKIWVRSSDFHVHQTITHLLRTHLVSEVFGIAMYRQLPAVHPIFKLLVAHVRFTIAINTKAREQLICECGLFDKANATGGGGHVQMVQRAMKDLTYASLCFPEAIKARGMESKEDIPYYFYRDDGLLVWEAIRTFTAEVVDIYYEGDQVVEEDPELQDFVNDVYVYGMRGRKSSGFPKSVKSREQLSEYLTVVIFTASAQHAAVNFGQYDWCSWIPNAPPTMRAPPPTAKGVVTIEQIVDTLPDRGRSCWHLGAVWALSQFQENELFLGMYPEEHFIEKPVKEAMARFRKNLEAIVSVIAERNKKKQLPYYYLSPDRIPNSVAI

[2] = target: Neutrophil collagenase (Homo sapiens) (UniProt P22894); conditions: at 1 mM;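 further: recombinant human MMP8 enzyme, percent inhibition read after 30 min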
Sequence of Neutrophil collagenase (Homo sapiens) (P22894 101-467 limits assumed): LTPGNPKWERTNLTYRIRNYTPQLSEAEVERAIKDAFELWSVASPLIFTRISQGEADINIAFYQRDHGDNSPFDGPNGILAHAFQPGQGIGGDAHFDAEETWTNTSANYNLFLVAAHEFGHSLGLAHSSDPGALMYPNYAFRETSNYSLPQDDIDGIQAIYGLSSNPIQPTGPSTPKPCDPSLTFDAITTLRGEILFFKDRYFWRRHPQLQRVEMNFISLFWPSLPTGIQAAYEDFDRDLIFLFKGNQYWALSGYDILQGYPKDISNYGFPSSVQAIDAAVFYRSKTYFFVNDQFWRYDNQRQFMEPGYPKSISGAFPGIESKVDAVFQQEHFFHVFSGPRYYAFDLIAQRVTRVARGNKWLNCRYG

[3] = target: Matrix metalloproteinase-9 (Homo sapiens) (UniProt P14780); conditions: at 1 mM;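 further: recombinant human MMP9, activity read after 30 min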
Sequence of Matrix metalloproteinase-9 (Homo sapiens) (P14780 whole entry): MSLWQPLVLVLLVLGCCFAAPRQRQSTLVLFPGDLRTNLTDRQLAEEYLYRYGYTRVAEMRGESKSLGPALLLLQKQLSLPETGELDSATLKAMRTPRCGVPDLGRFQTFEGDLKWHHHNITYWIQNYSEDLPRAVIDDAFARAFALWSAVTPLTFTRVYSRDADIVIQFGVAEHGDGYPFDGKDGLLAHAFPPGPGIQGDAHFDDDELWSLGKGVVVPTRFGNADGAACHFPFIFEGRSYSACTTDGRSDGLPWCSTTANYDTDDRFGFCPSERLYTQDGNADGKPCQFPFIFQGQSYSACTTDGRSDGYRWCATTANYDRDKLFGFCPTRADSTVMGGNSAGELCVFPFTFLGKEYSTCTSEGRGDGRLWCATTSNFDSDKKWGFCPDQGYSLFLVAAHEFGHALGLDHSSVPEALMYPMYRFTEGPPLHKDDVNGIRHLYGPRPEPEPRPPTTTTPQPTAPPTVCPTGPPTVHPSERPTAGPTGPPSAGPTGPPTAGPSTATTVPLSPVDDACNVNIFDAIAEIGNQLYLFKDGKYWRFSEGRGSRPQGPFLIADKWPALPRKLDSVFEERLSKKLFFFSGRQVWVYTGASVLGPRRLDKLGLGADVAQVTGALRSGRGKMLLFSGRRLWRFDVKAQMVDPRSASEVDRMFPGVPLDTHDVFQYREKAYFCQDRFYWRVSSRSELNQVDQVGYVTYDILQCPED

[4] = target: 72 kDa type IV collagenase (Homo sapiens, UniProt P08253); conditions: at 1 mM;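 further: recombinant human enzyme, inhibition read after a 30 min incubation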
Sequence of 72 kDa type IV collagenase (P08253 110-660 limits assumed): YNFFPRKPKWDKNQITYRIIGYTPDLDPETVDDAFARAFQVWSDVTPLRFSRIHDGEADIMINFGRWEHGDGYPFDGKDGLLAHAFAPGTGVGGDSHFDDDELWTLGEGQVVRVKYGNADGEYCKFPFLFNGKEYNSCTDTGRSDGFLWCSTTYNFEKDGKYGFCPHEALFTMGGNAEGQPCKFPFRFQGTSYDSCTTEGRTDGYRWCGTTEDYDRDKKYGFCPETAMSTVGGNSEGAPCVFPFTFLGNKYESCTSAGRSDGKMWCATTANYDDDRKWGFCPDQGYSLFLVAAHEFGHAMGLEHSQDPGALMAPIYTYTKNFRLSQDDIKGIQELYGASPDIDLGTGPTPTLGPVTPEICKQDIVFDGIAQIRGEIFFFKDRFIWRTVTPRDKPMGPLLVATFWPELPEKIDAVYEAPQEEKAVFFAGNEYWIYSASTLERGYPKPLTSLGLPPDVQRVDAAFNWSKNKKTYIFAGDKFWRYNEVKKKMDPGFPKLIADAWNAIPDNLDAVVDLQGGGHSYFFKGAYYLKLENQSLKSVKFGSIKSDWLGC

[5] = target: T2, Interstitial collagenase (Homo sapiens) (UniProt P03956); conditions: at 1 mM;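 further: recombinant human enzyme, with inhibition measured after 30 min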
T2 sequence (whole entry): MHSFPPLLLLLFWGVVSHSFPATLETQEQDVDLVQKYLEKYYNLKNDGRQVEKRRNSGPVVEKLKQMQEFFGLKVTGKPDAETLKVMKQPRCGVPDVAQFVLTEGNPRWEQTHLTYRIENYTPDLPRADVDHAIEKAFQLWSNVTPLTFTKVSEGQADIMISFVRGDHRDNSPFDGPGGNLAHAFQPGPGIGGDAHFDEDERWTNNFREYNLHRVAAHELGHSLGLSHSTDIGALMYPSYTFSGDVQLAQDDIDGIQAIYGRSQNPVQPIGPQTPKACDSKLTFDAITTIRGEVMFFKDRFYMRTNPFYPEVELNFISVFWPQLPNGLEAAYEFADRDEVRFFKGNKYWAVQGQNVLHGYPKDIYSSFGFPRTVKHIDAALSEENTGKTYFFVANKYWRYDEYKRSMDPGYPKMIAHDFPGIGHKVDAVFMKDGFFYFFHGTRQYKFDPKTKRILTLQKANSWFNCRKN

[6] = target: T3, Lethal factor (Bacillus anthracis) (UniProt P15917); conditions: at 1 mM
T3 sequence (whole entry): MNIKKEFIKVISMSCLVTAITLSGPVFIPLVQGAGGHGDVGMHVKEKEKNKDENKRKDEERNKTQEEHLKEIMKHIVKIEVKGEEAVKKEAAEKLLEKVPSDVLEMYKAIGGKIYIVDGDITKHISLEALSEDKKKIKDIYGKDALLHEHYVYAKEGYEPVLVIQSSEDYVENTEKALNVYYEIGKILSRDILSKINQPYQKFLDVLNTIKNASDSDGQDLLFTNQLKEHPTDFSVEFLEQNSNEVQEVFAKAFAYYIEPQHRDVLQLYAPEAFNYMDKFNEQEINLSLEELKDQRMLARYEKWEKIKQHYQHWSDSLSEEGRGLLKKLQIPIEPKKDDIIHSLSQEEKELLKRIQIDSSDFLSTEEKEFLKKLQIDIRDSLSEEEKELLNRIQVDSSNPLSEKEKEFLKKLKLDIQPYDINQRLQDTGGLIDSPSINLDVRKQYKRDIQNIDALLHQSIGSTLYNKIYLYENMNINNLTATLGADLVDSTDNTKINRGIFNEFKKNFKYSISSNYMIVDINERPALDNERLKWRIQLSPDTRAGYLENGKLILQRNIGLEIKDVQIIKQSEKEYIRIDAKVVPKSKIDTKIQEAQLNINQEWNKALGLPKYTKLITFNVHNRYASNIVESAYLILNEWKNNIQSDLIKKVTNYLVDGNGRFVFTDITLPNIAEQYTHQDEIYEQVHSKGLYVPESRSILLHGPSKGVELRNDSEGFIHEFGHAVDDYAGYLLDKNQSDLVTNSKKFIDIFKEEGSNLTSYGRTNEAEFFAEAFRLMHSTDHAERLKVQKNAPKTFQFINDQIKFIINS

[7] = target: Stromelysin-1 (Homo sapiens) (UniProt P08254); conditions: at 1 mM;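 further: recombinant enzyme, inhibition read after a 30 min incubation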
Sequence of Stromelysin-1 (Homo sapiens) (P08254 100-477 limits assumed): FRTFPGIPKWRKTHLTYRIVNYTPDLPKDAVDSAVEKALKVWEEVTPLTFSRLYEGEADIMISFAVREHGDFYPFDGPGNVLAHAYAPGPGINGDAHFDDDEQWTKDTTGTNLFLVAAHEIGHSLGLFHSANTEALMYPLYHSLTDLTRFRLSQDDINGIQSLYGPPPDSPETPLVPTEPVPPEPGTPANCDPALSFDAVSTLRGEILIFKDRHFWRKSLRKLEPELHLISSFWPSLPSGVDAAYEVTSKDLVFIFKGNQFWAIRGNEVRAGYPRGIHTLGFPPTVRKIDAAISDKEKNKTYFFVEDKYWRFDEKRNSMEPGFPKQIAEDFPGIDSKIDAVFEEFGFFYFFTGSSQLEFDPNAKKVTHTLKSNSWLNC

[8] = target: T4, Nitric oxide synthase, inducible (Mus musculus) (UniProt P29477); conditions: at 1 mM;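 further: recombinant enzyme, activity read out colorimetrically after 40 min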
T4 sequence (whole entry): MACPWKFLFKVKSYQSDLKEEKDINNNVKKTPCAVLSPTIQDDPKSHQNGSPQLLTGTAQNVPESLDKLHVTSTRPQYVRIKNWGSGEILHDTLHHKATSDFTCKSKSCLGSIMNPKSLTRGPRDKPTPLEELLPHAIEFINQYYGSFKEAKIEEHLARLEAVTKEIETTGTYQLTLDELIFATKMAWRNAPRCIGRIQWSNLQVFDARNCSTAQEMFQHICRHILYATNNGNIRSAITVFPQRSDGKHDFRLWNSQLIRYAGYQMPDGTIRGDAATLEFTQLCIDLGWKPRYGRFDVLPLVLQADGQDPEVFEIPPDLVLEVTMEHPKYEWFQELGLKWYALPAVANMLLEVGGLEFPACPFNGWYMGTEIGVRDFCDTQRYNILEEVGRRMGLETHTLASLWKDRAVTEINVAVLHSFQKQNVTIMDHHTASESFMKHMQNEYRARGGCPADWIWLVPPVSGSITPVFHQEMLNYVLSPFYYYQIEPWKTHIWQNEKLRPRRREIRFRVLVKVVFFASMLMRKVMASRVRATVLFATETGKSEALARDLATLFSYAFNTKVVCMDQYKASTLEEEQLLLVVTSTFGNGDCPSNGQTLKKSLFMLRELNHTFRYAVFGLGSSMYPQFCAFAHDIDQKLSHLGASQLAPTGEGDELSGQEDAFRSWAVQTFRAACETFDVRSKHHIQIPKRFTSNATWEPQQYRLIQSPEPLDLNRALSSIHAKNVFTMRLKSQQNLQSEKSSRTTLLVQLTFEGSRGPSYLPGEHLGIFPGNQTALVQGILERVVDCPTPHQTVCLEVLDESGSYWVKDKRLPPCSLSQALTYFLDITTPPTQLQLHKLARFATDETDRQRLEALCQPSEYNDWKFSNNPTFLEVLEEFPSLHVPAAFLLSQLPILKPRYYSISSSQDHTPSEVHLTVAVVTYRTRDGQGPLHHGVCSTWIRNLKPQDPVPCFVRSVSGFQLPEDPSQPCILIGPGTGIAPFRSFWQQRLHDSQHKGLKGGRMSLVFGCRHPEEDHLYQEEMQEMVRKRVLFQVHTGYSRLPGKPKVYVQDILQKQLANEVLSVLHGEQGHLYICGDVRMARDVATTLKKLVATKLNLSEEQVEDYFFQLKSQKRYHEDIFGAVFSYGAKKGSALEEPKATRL

[9] = target: T5, Tyrosinase (Agaricus bisporus) (UniProt O42713); conditions: at 1 mM;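 further: inhibition measured at 10 min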
T5 sequence (whole entry): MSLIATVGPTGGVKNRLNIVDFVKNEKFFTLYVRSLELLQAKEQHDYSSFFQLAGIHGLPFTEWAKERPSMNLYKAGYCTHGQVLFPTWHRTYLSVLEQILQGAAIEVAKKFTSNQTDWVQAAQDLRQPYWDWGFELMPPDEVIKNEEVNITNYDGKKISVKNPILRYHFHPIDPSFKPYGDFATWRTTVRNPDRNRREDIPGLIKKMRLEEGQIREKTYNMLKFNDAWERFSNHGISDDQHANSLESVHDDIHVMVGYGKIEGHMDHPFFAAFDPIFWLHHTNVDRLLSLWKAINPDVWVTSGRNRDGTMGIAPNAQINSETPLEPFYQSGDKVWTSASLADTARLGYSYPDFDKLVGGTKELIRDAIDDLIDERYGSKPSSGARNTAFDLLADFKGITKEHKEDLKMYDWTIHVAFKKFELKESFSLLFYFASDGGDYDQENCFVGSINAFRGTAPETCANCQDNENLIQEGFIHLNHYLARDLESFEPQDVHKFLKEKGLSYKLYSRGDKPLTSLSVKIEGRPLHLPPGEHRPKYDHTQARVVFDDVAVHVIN

Row | Compound | inhibition [1] [%] | inhibition [2] [%] | inhibition [3] [%] | inhibition [4] [%] | inhibition [5] [%] | inhibition [6] [%] | inhibition [7] [%] | inhibition [8] [%] | inhibition [9] [%]
1 | Nc1ccc2cccc(O)c2n1 | 66 | 91 | 100 | 100 | 96 | 59 | 87 | 38 | –
2 | Oc1ccccc1O | 89 | 31 | 10 | 10 | 25 | 47 | 1 | 28 | –
3 | Cc1cc(=O)c(O)c(CO)o1 | – | 53 | 44 | 45 | 60 | 14 | 47 | 9 | 11
4 | Cc1ccc2cccc(O)c2n1 | 59 | 63 | 34 | 65 | 47 | 44 | 71 | 7 | –
5 | CCc1occc(=O)c1O | – | 34 | 28 | 33 | 39 | 25 | 38 | 8 | -7
6 | O=C(O)c1ccc2ccccc2n1 | – | 29 | 37 | 37 | 52 | 45 | 73 | 11 | 58
7 | O=c1cc(CO)occ1O | 84 | 51 | 49 | 52 | 59 | 33 | 62 | -4 | –
8 | O=C(O)c1ccc2cccc(O)c2n1 | – | 88 | 68 | 84 | 82 | 89 | 94 | 29 | 75
9 | Cc1occc(=O)c1O | – | 19 | 32 | 38 | 41 | 19 | 34 | 6 | -6
10 | CCc1c(O)c(=O)ccn1CC | 83 | 31 | 15 | 17 | 25 | – | 9 | 8 | –
11 | OCc1ccnc(-c2cc(CO)ccn2)c1 | 41 | 100 | 58 | 77 | 72 | 9 | 96 | 21 | –
12 | O=C(O)c1cccc(=O)n1O | – | 89 | 66 | 60 | 84 | 47 | 86 | -5 | 94
13 | c1cnc2c(c1)ccc1cccnc12 | 4 | 100 | 86 | 100 | 71 | 67 | 91 | 30 | –
14 | O=C(O)c1ccc(O)cc1O | – | -1 | -8 | -7 | 14 | 7 | 3 | 16 | 91
15 | CCc1c(O)c(=O)ccn1C | 78 | 34 | 13 | 32 | 34 | 4 | 20 | 1 | –
16 | CC(C)c1cccc(=O)c(O)c1 | – | 100 | 99 | 90 | 95 | 66 | 98 | 18 | 54
17 | NC(=O)c1ccccc1O | – | 24 | 23 | -1 | 21 | 0 | 1 | 14 | -8
